These results are taken from patent US11667606B2, “Thyromimetics” (Autobahn Therapeutics, Inc., priority 2019, dated 2023).

As usually defined, the EC50 is the midpoint of the concentration-response curve.

The target in one assay is T1, TRβ (Homo sapiens, UniProt P10828).
T1 construct: expressed in transfected cells; host or cells: HEK293
T1 sequence (P10828 217-461 limits assumed): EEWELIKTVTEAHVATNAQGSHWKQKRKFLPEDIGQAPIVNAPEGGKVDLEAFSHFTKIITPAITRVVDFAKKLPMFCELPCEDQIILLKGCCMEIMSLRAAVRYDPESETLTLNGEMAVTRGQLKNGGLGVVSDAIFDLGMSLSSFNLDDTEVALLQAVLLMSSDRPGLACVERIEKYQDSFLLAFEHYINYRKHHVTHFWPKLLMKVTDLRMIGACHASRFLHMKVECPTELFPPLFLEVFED
The assay is described as follows: Thyroid-hormone reporter-gene assay, TRβ (Gal4 DBD hybrid, luciferase, HEK293). The class given is cell-based. As to conditions: for T3-SI, selectivity index (SI) calculated as EC50 (TRα)/EC50 (TRβ): TRβ over TRα selectivity from reporter-gene EC50 values; for EC50: reporter cells derived from HEK293, 24 hr incubation, luciferase readout. As for the experimental part: (§1) Compounds were tested for thyroid-hormone receptor activity using TR reporter-gene assays. Reporter cells used in the assays express a TR-receptor hybrid (either TRα or TRβ) in which the native N-terminal DNA binding domain (DBD) has been replaced with that of the yeast Gal4 DBD. The reporter gene, firefly luciferase, is functionally linked to the Gal4 upstream activation sequence (UAS). Both cell lines were derived from human embryonic kidney (HEK293).
(§2) A suspension of reporter cells was prepared in cell recovery medium containing 10% charcoal-stripped FBS, and dispensed into assay plates. The plates were pre-incubated for 6 hours in a cell culture incubator (37° C./5% CO2/85% humidity).
(§3) These intermediate stocks were subsequently diluted directly into compound screening medium containing 10% charcoal-stripped FBS to generate “2×-concentration” treatment media (containing 0.2, 0.4 or 0.8% DMSO).
(§4) At the end of the pre-incubation period, culture media were discarded from the assay plates, and all wells received 100 μl of compound screening medium. 100 μl of each of the previously prepared “2×-concentration” treatment media were dispensed into duplicate assay wells, thereby achieving the desired final treatment concentrations. The final concentration of DMSO in all assay wells was 0.1, 0.2 or 0.4%. Assay plates were incubated for 24 hr in a cell culture incubator (37° C./5% CO2/85% humidity).
(§5) At the 24 h assay endpoint, treatment media were discarded and […] of luciferase detection reagent was added. Relative luminometer units (RLUs) were quantified from each assay well.

The target in another assay is T2, TRα (Homo sapiens, UniProt P10827).
T2 construct: expressed in transfected cells; host or cells: HEK293
T2 sequence (P10827 128-410 isoform P10827-2 limits assumed): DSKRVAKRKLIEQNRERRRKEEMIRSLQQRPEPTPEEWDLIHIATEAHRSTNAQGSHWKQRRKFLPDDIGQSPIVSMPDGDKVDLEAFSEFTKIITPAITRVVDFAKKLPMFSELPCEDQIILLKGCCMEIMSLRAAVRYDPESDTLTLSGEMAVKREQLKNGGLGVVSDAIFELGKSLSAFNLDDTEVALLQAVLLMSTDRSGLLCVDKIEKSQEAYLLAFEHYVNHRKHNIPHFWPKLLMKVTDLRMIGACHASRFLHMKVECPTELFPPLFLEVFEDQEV
Briefly: Thyroid-hormone reporter-gene assay, TRα (Gal4 DBD hybrid, luciferase, HEK293). The class given is cell-based. The conditions noted are these: reporter cells derived from HEK293, 24 hr incubation, luciferase readout. The method, then:
as §1, §2, §3, §4, §5

`Cc1cc(OCC(=O)O)cc(Cl)c1Cc1ccc(O)c(-c2cccc(C(F)(F)F)c2)c1` [Compound 64, 2-(3-chloro-4-((6-hydroxy-3′-(trifluoromethyl)-[1,1′-biphenyl]-3-yl)methyl)-5-methylphenoxy)acetic Acid]: at TRβ, the “T3-SI, selectivity index (SI) calculated as EC50 (TRα)/EC50 (TRβ)” value (shortened to “T3-SI, selectivity index (SI) calculated”) was “++ (3X < T3-SI ≤ 30X)” and the EC50 is 0.1 to 1 µM. The compound further gave an EC50 at TRα of 0.1 to 1 µM.

For `Cc1cc(OCC(=O)O)cc(Br)c1Cc1ccc(O)c(-c2cccc(OC(F)F)c2)c1` [Compound 66, 2-(3-bromo-4-((3′-(difluoromethoxy)-6-hydroxy-[1,1′-biphenyl]-3-yl)methyl)-5-methylphenoxy)acetic Acid], on TRβ, the “T3-SI, selectivity index (SI) calculated” value was “++ (3X < T3-SI ≤ 30X)” and the EC50 was in the range of 0.01 to 0.1 µM. The EC50 on TRα was 0.1 to 1 µM.

For `O=C(O)COc1cc(Cl)c(Cc2ccc(O)c(Cc3ccc(F)cc3)c2)c(Cl)c1` [Compound 70, 2-(3,5-dichloro-4-(3-(4-fluorobenzyl)-4-hydroxybenzyl)phenoxy)acetic Acid], the “T3-SI, selectivity index (SI) calculated” value on TRβ is recorded as “+++ (T3-SI > 30X)”. Also, the concentration giving a half-maximal response (EC50) is 0.1 to 1 µM at TRβ and over 1 µM at TRα.

For `CC(c1ccc(F)cc1)c1cc(Cc2c(Cl)cc(OCC(=O)O)cc2Cl)ccc1O` (stereo not drawn) [Compound 73, 2-(3,5-dichloro-4-(3-(1-(4-fluorophenyl)ethyl)-4-hydroxybenzyl)phenoxy) acetic Acid], on TRβ, the “T3-SI, selectivity index (SI) calculated” value is listed as “++ (3X < T3-SI ≤ 30X)” and the EC50 was in the range of 0.01 to 0.1 µM. The EC50 on TRα is 0.01 to 0.1 µM.

Consider `O=C(O)COc1cc(Cl)c(Cc2ccc(O)c(Cc3ccncc3)c2)c(Cl)c1` [Compound 82, 2-(3,5-dichloro-4-(4-hydroxy-3-(pyridin-4-ylmethyl)benzyl)phenoxy) acetic Acid], for which, at TRβ, the “T3-SI, selectivity index (SI) calculated” value is “++ (3X < T3-SI ≤ 30X)” and the EC50 is over 1 µM. This compound displayed an EC50 on TRα of over 1 µM.

With `O=C(O)COc1cc(Cl)c(Cc2ccc(O)c(Cc3ccccc3F)c2)c(Cl)c1` [Compound 84, 2-(3,5-dichloro-4-(3-(2-fluorobenzyl)-4-hydroxybenzyl)phenoxy)acetic Acid], at TRβ, the “T3-SI, selectivity index (SI) calculated” value was “++ (3X < T3-SI ≤ 30X)” and the EC50 is over 1 µM. On TRα, this compound returned a 50% effective concentration (EC50) of over 1 µM.

Turning to `O=C(O)COc1cc(Cl)c(Cc2ccc(O)c(Cc3cccc(F)c3)c2)c(Cl)c1` [Compound 86, 2-(3,5-dichloro-4-(3-(3-fluorobenzyl)-4-hydroxybenzyl)phenoxy)acetic Acid], at TRβ, the “T3-SI, selectivity index (SI) calculated” value is listed as “++ (3X < T3-SI ≤ 30X)”. Moreover, the EC50 on TRβ and on TRα was over 1 µM throughout.

As for `O=C(O)COc1cc(Cl)c(Cc2ccc(O)c(Cc3ccc(F)cc3F)c2)c(Cl)c1` [Compound 88, 2-(3,5-dichloro-4-(3-(2,4-difluorobenzyl)-4-hydroxybenzyl)phenoxy)acetic Acid], at TRβ, the “T3-SI, selectivity index (SI) calculated” value is reported as “++ (3X < T3-SI ≤ 30X)” and the concentration for a half-maximal effect (EC50) was in the range of 0.1 to 1 µM. On TRα, this compound had an EC50 of 0.1 to 1 µM.

On to `O=C(O)COc1cc(Cl)c(Cc2ccc(O)c(Cc3ccc(Cl)cc3)c2)c(Cl)c1` [Compound 90, 2-(3,5-dichloro-4-(3-(4-chlorobenzyl)-4-hydroxybenzyl)phenoxy)acetic Acid], for which, at TRβ, the “T3-SI, selectivity index (SI) calculated” value is listed as “++ (3X < T3-SI ≤ 30X)” and the EC50 is over 1 µM. The compound also displayed an EC50 at TRα of over 1 µM.

On to `CCC(c1ccc(F)cc1)c1cc(Cc2c(Cl)cc(OCC(=O)O)cc2Cl)ccc1O` (stereo not drawn) [Compound 98, 2-(3,5-dichloro-4-(3-(1-(4-fluorophenyl)propyl)-4-hydroxybenzyl)phenoxy)acetic Acid], for which, on TRβ, the “T3-SI, selectivity index (SI) calculated” value is “++ (3X < T3-SI ≤ 30X)” and the concentration giving a half-maximal response (EC50) is 0.01 to 0.1 µM. At TRα, the EC50 fell in the range of 0.1 to 1 µM.

`CCCC(c1ccc(F)cc1)c1cc(Cc2c(Cl)cc(OCC(=O)O)cc2Cl)ccc1O` (stereo not drawn) [Compound 102, 2-(3,5-dichloro-4-(3-(1-(4-fluorophenyl)butyl)-4-hydroxybenzyl)phenoxy) acetic Acid]: at TRβ, the “T3-SI, selectivity index (SI) calculated” value is “+++ (T3-SI > 30X)” and the EC50 was 0.1 to 1 µM. Besides, the EC50 at TRα is over 1 µM.

`CC(C)C(c1ccc(F)cc1)c1cc(Cc2c(Cl)cc(OCC(=O)O)cc2Cl)ccc1O` (stereo not drawn) [Compound 104, 2-(3,5-dichloro-4-(3-(1-(4-fluorophenyl)-2-methylpropyl)-4-hydroxybenzyl)phenoxy)acetic Acid]: on TRβ, the “T3-SI, selectivity index (SI) calculated” value was “++ (3X < T3-SI ≤ 30X)” and the EC50 lay in the range of 0.01 to 0.1 µM. Moreover, the concentration for a half-maximal effect (EC50) on TRα fell in the range of 0.1 to 1 µM.

For `CC(C)(c1ccc(F)cc1)c1cc(Cc2c(Cl)cc(OCC(=O)O)cc2Cl)ccc1O` [Compound 105, 2-(3,5-dichloro-4-(3-(2-(4-fluorophenyl)propan-2-yl)-4-hydroxybenzyl)phenoxy)acetic Acid], at TRβ, the “T3-SI, selectivity index (SI) calculated” value is “++ (3X < T3-SI ≤ 30X)”. For the same compound, the EC50 at TRβ lay in the range of 0.01 to 0.1 µM; at TRα, 0.1 to 1 µM.

For `O=C(O)COc1cc(Cl)c(Cc2ccc(O)c(C(c3ccc(F)cc3)C3CC3)c2)c(Cl)c1` (stereo not drawn) [Compound 107, 2-(3,5-dichloro-4-(3-(cyclopropyl(4-fluorophenyl)methyl)-4-hydroxybenzyl)phenoxy)acetic Acid], on TRβ, the “T3-SI, selectivity index (SI) calculated” value was “++ (3X < T3-SI ≤ 30X)” and the EC50 lay within 0.01 to 0.1 µM. For the same compound, at TRα, the EC50 was in the range of 0.1 to 1 µM.

For `O=C(O)COc1cc(Cl)c(Cc2ccc(O)c(C(c3ccc(F)cc3)C3CCC3)c2)c(Cl)c1` (stereo not drawn) [Compound 109, 2-(3,5-dichloro-4-(3-(cyclobutyl(4-fluorophenyl)methyl)-4-hydroxybenzyl)phenoxy)acetic Acid], at TRβ, the “T3-SI, selectivity index (SI) calculated” value is recorded as “+++ (T3-SI > 30X)” and the EC50 lay in the range of 0.1 to 1 µM. The compound also displayed an EC50 at TRα of over 1 µM.

For the compound `O=C(O)COc1cc(Cl)c(Cc2ccc(O)c(C3CCCc4cc(F)ccc43)c2)c(Cl)c1` (stereo not drawn) [Compound 111, 2-(3,5-dichloro-4-(3-(6-fluoro-1,2,3,4-tetrahydronaphthalen-1-yl)-4-hydroxybenzyl)phenoxy)acetic Acid], at TRβ, the “T3-SI, selectivity index (SI) calculated” value is “++ (3X < T3-SI ≤ 30X)” and the EC50 was 0.1 to 1 µM. Also, at TRα, the EC50 fell in the range of 0.1 to 1 µM.

In the case of `O=C(O)COc1cc(Cl)c(Cc2ccc(O)c(C3CCc4cc(F)ccc43)c2)c(Cl)c1` (stereo not drawn) [Compound 113, 2-(3,5-dichloro-4-(3-(5-fluoro-2,3-dihydro-1H-inden-1-yl)-4-hydroxybenzyl)phenoxy)acetic Acid], on TRβ, the “T3-SI, selectivity index (SI) calculated” value is on record as “++ (3X < T3-SI ≤ 30X)” and the concentration giving a half-maximal response (EC50) is over 1 µM. This compound came in with an EC50 at TRα of over 1 µM.

Consider `Cc1cc(OCC(=O)O)cc(Cl)c1Cc1ccc(O)c(Cc2ccc(F)cc2)c1` [Compound 115, 2-(3-chloro-4-(3-(4-fluorobenzyl)-4-hydroxybenzyl)-5-methylphenoxy) acetic Acid], for which the “T3-SI, selectivity index (SI) calculated” value on TRβ is “++ (3X < T3-SI ≤ 30X)”. The values for the EC50 at TRβ and at TRα were 0.01 to 0.1 µM and 0.1 to 1 µM, respectively.

In the case of `O=C(O)COc1cc(Cl)c(Cc2ccc(O)c(Cc3ccoc3)c2)c(Cl)c1` [Compound 119, 2-(3,5-dichloro-4-(3-(furan-3-ylmethyl)-4-hydroxybenzyl)phenoxy)acetic Acid], at TRβ, the “T3-SI, selectivity index (SI) calculated” value is given as “++ (3X < T3-SI ≤ 30X)” and the EC50 fell in the range of 0.1 to 1 µM. Further, the EC50 at TRα is over 1 µM.
